Experimental data reported in patent publication US12343397B2, “Drug-resistant immune cells and methods of use thereof” (Regents of the University of Minnesota, priority 2018, dated 2025).

Experiments:
[1] = test system: Tregs; experiment: CNI (CsA, FK506) effect on Treg survival in vitro; assay type: cell-based, human; conditions: cyclosporine 20, 200, 2000 ng/ml or FK506 3, 10, 30 ng/ml, 2-3 days; IL-2 300 U/mL; even at >3-fold over peak therapeutic values
From the text: The percent survival relative to the control Tregs without drugs is shown. IL-2 concentration of 300 U/mL was used. […] FIG. 7D depicts data showing the percent relative survival of Tregs without drug at IL-2 300 U/mL as compared to those cultured with the indicated concentrations of drug in the presence of IL-2 at 30, 100, or 300 U/mL as indicated. Mean values are shown±standard error of the mean for three (FIG. 7B) or four (FIG. 7D) separate cultures.
To model the in vivo inhibitory effects of CNI on Treg survival and expansion, banked Tregs were thawed, re-stimulated, expanded for 4±1 days and treated with or without cyclosporine (20, 200, and 2000 ng/ml) or FK506 (3, 10, 30 ng/ml) for an additional 2-3 days and relative survival was assessed by flow cytometry. Studies were performed with non-separated Tregs, naïve Tregs and memory Tregs, to determine whether one subset was differentially sensitive to Dex and CNIs and to determine whether IL-2 dependency differences might permit lower IL-2 concentrations.

[2] = test system: xeno-GVHD model; experiment: Xenogeneic GVHD model (NSG mice given human PBMC); assay type: in vivo
Method: FIGS. 11A-11D depicts the monitoring of GVHD in mice. Human PBMC (15×10^6) were injected into irradiated (50 rad) NSG mice±methylprednisolone (15 mg/kg), and signs of GVHD were monitored. FIG. 11A depicts a schematic illustration of the experiments indicating cohorts (n=7 mice each), dosing schedule, and analysis points. FIG. 11B depicts Kaplan-Meier survival curves for mice receiving PBMC only, or PBMC+prednisolone (p=0.104). FIG. 11C depicts disease progression monitored by weight loss (p=not significant). FIG. 11D depicts disease progression monitored by quantitating the number of PBMC-derived CD45+, CD4+, CD8+, and CD4+Foxp3+ T cells (p<0.03, <0.05, <0.03, and not significant, respectively). Animals were bled on day 19 for assessment.
FIGS. 12A-12D depicts the monitoring of GVHD in mice. […] FIG. 12B depicts Kaplan-Meier survival curves for mice receiving PBMC only, or PBMC+CNI (PBMC only vs. FK506 (36 mg/kg), p≤0.04). FIG. 12C depicts disease progression monitored by weight loss (p=not significant). FIG. 12D depicts disease progression monitored by quantitating the number of PBMC-derived CD45+, CD4+, CD8+, and CD4+Foxp3+ T cells (p<0.03, <0.05, <0.02, and not significant, respectively). Animals were bled on day 18 for assessment.
A follow up study has shown that xeno-GVHD pathology induced with 200 rad+1×10^7 human PBMC is more reproducible, and median survival is reduced from ˜25 days to ˜20 days.

[3] = test system: allogeneic GVHD model; assay type: in vivo
From the text: To test whether gene modified (GR2-CRISPR/Cas9) or gene edited (GR2-CRISPR/Cas9/AAV-CaN mut.) Tregs have increased efficacy in vivo in the presence of glucocorticoid, how glucocorticoid (methyl-prednisolone) effects GVHD in preclinical mouse models was first determined. […] For these reasons, as well as the more logistically feasible and cost effective benefits of an allogeneic GVHD model, optimized steroid use in allogeneic recipients for GVHD prevention and therapy were first tested, and then applied to a xenogeneic model to enable testing of the human Treg product. […] The T cell dose was reduced to 1.5×10^6 and moved to GVHD therapy beginning on day 3 or day 4 (rather than day 1 prophylaxis) and compared no treatment to vehicle to prednisolone (n=8/group).

`C=CC[C@@H]1/C=C(\C)C[C@H](C)C[C@H](OC)[C@H]2O[C@@](O)(C(=O)C(=O)N3CCCC[C@H]3C(=O)O[C@H](/C(C)=C/[C@@H]3CC[C@@H](O)[C@H](OC)C3)[C@H](C)[C@@H](O)CC1=O)[C@H](C)C[C@@H]2OC` [FK506, Tacrolimus] was tested. Which “effect on Treg survival in vitro” value [1] did it give?
The value was “neither CsA or FK506 had a significant effect on Treg survival”.

And the survival ([2]; 12 mg/kg, P=0.45)?
Its survival is “not significantly different”.

What about the median survival ([2]; 12 mg/kg, controls 29 days) of the same molecule?
The median survival was 20 days.

And the “in vivo expansion of human CD45+, CD4+ and CD8+ cells” value ([2]; FK506 36 or 12 mg/kg, CsA 80 mg/kg, vs PBMC only controls)?
The value was “significantly reduced”.

And the survival ([2]; high dose, 36 mg/kg)?
Its survival is “significantly decreased survival”.

What about the “day 100 survival” value ([3]; 36 mg/kg/day in carboxymethylcellulose, vehicle 0% by day 37) of the same molecule?
Its value is 55%-90.

And the GVHD prophylaxis efficacy ([3]; 12 or 24 mg/kg/day in aqueous solution)?
The GVHD prophylaxis efficacy was “poorer efficacy”.

What about the “optimal GVHD prophylactic dose” value ([3]; allogeneic GVHD model) of the same molecule?
The value was 36 mg/kg/day.
